Structures are written as SMILES.

Format in all cases: in vivo
In test [1] the test system is corneal disorder model in rats. In words: Test for therapeutic effects on corneal disorder (corneal disorder model associated with dry eye). The settings on record: male SD rats, exorbital lacrimal gland removed; 0.03% (W/V) ophthalmic suspension instilled 6 times a day for 14 days; fluorescein staining score; 8 eyes in 4 animals. Here is the method:
In order to evaluate the improvement effect of corneal disorder with dry eye of the present compounds, using male SD rats, corneal disorder models were produced according to the method of Fujihara et al. (Invest. Ophthalmol. Vis. Sci. 42 (1): 96-100 (2001)). After the production of the corneal disorder models, the improvement ratio of the corneal disorder was assessed according to the method of Murakami et al. (Journal of the eye 21 (1): 87-90 (2004)).
A 0.03% (W/V) test compound ophthalmic suspension was prepared by adding vehicle containing polysorbate 80 and the general additives to test compound.
1) Male SD rats were systemically anesthetized by an administration of Somnopentyl. Subsequently the exorbital lacrimal gland of each rat was removed and a corneal damage was induced over a period of 2 months.
2) The test compound ophthalmic suspension was instilled into both eyes 6 times a day for 14 days. In a control group, vehicle was instilled in the same way.
3) Fourteen days after the start of instillation, the damaged parts of the cornea were stained with fluorescein. For each of the upper, middle and lower parts of the cornea, the degree of fluorescein staining was evaluated by scoring according to the criteria shown below and the mean value of the total scores for each of the above-mentioned parts was calculated. The score range in each divided section is 0 to 3 and the minimum score unit is 0.5. 0.5 was provided as an intermediate value between each score 0, 1, 2, 3.
1: Scattered staining (each punctate staining being separated)
2: Moderate staining (a part of punctate staining being adjacent)
3: Heavy staining (each punctate staining being adjacent) Improvement ratio of test compound instillation group(%)=(Ao−Ax)/(Ao−An)×100 (Calculation Equation)
Ao: the mean value of corneal disorder score in vehicle instilled (control) group
Ax: the mean value of corneal disorder score in test compound instilled group
An: the mean value of corneal disorder score in normal rat group.

Test [2] relates to choroidal neovascularization (CNV) model in rats. The test is described as follows: Evaluation test for inhibitory effect of choroidal neovascularization (laser induced CNV model in rats). The settings on record: Brown Norway rats, 1% (w/v) suspension eye drops four times a day or 20 mg/mL subconjunctival injection (route not given), vs vehicle, mean of 7-8 eyes in 4 rats. Here is the method:
The choroidal neovascularization (CNV) model in rats is known as one of the popular methods for evaluating the CNV inhibitory effect of drugs. This method is reported in Graefe's Arch. Cli. Exp. Ophthalmol., 235, 313-319 (1997). According to this method, the CNV examinations were performed to evaluate the CNV inhibitory effect of test compounds by comparing the incidence rates of CNV in vehicle group (control group) with test compound-treated groups.
For eye drop administration, a 1% (w/v) test compound suspension was prepared by adding 0.5% polysorbate 80/saline to the test compound. For subconjunctival injection, a 20 mg/mL test compound suspension was prepared by adding 0.5% hydrogenated castor oil/saline to the test compound.
1) Brown Norway male rats (7-8 weeks, 140-240 g) were anesthetized with intramuscular injection (1 mL/kg) of the mixed solution (5% ketamine HCl: 2% xylazine HCl=7:1).
2) After mydriasis using tropicamide phenylephrine hydrochloride eye drops (trade name Mydrin P), laser photocoagulation of bruch's membrane in rats was performed with krypton laser photocoagulation machine. Laser irradiation was performed at 8-9 points per eye avoiding thick retinal blood vessels in ocular fundus and focusing on the depth of retina. The conditions were 100 μm spot size, 100 mW power, 0.1 second duration.
3) After laser photocoagulation, photographs of ocular fundus were taken and the laser photocoagulation (laser irradiation) points were confirmed.
1) In case of eye drops administration, a test compound suspension was administrated four times a day from laser irradiation day (the 1st day) to the 8th day. In case of subconjunctival injection, a 50 μL test compound suspension was injected into conjunctivae just after laser irradiation.
2) In vehicle group (control group), 0.5% polysorbate 80/saline or 0.5% hydrogenated castor oil/saline was used instead of a test compound suspension. And the test was performed according to the method 1).
1) 7 days after laser irradiation, 0.1 mL of 10% fluorescein was injected into rat tail vein and fluorescein angiography was performed.
2) When the fluorescent leakage was not detected in the fluorescent angiography, the spot was judged to be a negative spot. When the fluorescent leakage was detected, the spot was judged to be a positive spot. When the fluorescent leakage was detected as a little leakage, two spots were counted as one positive spot.
3) The neovascular incidence rate was calculated according to the equation 1. According to the equation 2, the ratio of neovascular incidence rate in test compound group to vehicle group was calculated. Neovascular incidence rate(%)=(Positive spots/all spots)×100 (Equation 1) Angiogenic inhibition ratio in test compound group(%)=(1−Ax/Ao)×100 (Equation 2)
Ao: Neovascular incidence rate in vehicle group (control group)
Ax: Neovascular incidence rate in test compound group

In test [3] the test system is atopic dermatitis model in mice. In words: Inhibitory effect test on the vascular hyper-permeability in the atopic dermatitis model. The settings on record: DNFB, 1% (W/W) test compound ointment on ears, 21 times in total, dye leakage vs vehicle, 12 ears in 6 animals. As to the method:
In order to evaluate the effects in atopic dermatitis of the present compound, the inhibitory effects of test compound on the vascular hyper-permeability in the atopic dermatitis model in mice were investigated. Procedure of atopic dermatitis model and estimation method was used according to the method of Nagai et al. (J. Pharmacol. Exp. Ther., 283: 321-327 (1997)) with modification. The inhibitory effects were calculated based on dye leakage in vehicle-treated group (control) and test compound-treated group.
The test compound was mixed with white petrolatum, whereby a 1% (W/W) test compound ointment was prepared.
1) Mice were challenged by topical instillation of 25 μL of 0.15% DNFB solution on both sides of both ears once a week for 5 weeks.
2) Test compounds were administered by topical instillation of 25 μL ointments on each side of both ears five times a week from the previous day of the 1st DNFB painting to the previous day of 5th DNFB painting, 21 times in total. Mice were painted with the test compound ointment onto the ear, 25 μL to the inner and 25 μL to outer side. In vehicle-treated group (control group), white petrolatum was administered by topical instillation in the same way.
3) Dyes, a solution of 0.2% Evans blue, were administered to mice intravenously just after the 5th DNFB painting. Ear tissues were removed 2 hours after the intravenous injection of dyes. Then each removed tissue was put into dye extract and dye was extracted. The absorbance of each extract was determined with a spectrophotometer. The amount of dye leakage was calculated from obtained absorbance. The inhibition ratio of the vascular hyper-permeability associated with atopic dermatitis of test compound-treatment group was calculated according to the following equation 1. The inhibition ratio of the vascular hyper-permeability of test compound-treatment group(%)=(1−Ax/Ao)×100 (Calculation Equation 1) Ao: the amount of dye leakage in vehicle-treated group (Control) Ax: the amount of dye leakage in test compound-treated group (Result and Discussion)

As for `COc1cc(OC(=O)c2cccnc2)ccc1-c1ccc2c(c1COc1cc([N+](=O)[O-])ccc1C)C(C)=CC(C)(C)N2` [Compound 1-72, 6-[2-Methoxy-4-(pyridin-3-ylcarbonyloxy)phenyl]-5-(2-methyl-5-nitrophenoxymethyl)-2,2,4-trimethyl-1,2-dihydroquinoline], in test [1], the “Improvement ratio of corneal disorder (%)” value (from here on “Improvement ratio … (%)”) worked out at 67%. The “Angiogenic inhibition ratio (%)” value in test [2] was 28%. In addition, the “Inhibition ratio of the vascular hyper-permeability (%)” value in test [3] was 15%.

For the compound `COc1cc(OC(=O)c2ccco2)ccc1-c1ccc2c(c1COc1cc(F)ccc1C)C(C)=CC(C)(C)N2` [Compound 1-13, 5-(5-Fluoro-2-methylphenoxymethyl)-6-[4-(furan-2-ylcarbonyloxy)-2-methoxyphenyl]-2,2,4-trimethyl-1,2-dihydroquinoline], the “Improvement ratio … (%)” value in test [1] was found to be 61%. For the same compound, the “Angiogenic inhibition ratio (%)” value in test [2] was 38%. In test [3], the “Inhibition ratio of the vascular hyper-permeability (%)” value turned out to be 13%.

For the compound `CCCS(=O)(=O)Oc1ccc(-c2ccc3c(c2CNc2ccccc2OC)C(C)=CC(C)(C)N3)c(OC)c1` [Compound 4-18, 5-(2-Methoxyphenylaminomethyl)-6-(2-methoxy-4-propylsulfonyloxyphenyl)-2,2,4-trimethyl-1,2-dihydroquinoline], in test [1], the “Improvement ratio … (%)” value came to 56%. In addition, the “Angiogenic inhibition ratio (%)” value in test [2] came out at 35%. In addition, the “Inhibition ratio of the vascular hyper-permeability (%)” value in test [3] worked out at 30%.

As for `COc1cc(OC(=O)c2ccsc2)ccc1-c1ccc2c(c1COc1cc(F)ccc1C)C(C)=CC(C)(C)N2` [Compound 1-12, 5-(5-Fluoro-2-methylphenoxymethyl)-6-[2-methoxy-4-(thiophen-3-ylcarbonyloxy)phenyl]-2,2,4-trimethyl-1,2-dihydroquinoline], in test [1], the “Improvement ratio … (%)” value is 69%. Further, the “Angiogenic inhibition ratio (%)” value in test [2] is recorded as 37%. Moreover, the “Inhibition ratio of the vascular hyper-permeability (%)” value in test [3] is given as 22%.

The values are drawn from US8426406B2, “Glucocorticoid receptor agonist comprising 2,2,4-trimethyl-6-phenyl-1,2-dihydroquinoline derivatives having substituted oxy group” (Santen Pharmaceutical Co., Ltd., priority 2008, dated 2013).
